Key:
[1] = biological target: Mitogen-activated protein kinase 3 (Homo sapiens, UniProt P27361); test: DRUGMATRIX: Protein Serine/Threonine Kinase, ERK1 enzyme inhibition (substrate: Myelin Basic Protein); set-up: species or system Escherichia coli; conditions: Not Active = under 50% inhibition at 10 µM
D(3) dopamine receptor = D(3) dopamine receptor (Homo sapiens, UniProt P35462); test: DRUGMATRIX: Dopamine D3 radioligand binding (ligand: [3H] Spiperone); type: cell membranes, CHO, Membrane; conditions: for Ki: read-out: Ki
[2] = biological target: T1, Muscarinic acetylcholine receptor M5 (Homo sapiens, UniProt P08912); type: cell membranes, CHO-K1, Membrane; conditions: cho-k1; also: in other assays of this panel Not Active means under 50% inhibition at 10 µM
T1 sequence (P08912 whole entry): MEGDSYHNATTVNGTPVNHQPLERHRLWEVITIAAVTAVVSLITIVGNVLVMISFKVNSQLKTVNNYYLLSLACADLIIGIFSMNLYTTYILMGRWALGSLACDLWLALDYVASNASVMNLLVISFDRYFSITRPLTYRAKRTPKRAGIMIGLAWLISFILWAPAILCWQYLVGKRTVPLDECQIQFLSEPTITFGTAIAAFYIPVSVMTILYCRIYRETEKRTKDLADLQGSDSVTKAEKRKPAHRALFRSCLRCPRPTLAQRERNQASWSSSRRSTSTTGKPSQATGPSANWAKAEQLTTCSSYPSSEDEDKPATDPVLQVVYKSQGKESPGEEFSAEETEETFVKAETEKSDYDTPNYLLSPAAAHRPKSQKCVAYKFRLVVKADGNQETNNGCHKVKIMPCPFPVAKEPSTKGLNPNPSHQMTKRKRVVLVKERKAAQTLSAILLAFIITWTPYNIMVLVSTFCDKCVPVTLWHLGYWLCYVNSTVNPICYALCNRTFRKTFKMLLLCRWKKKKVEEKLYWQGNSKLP

Cytochrome P450 2D6 = Cytochrome P450 2D6 (Homo sapiens, UniProt P10635); conditions: bti-tn-5b1-4; also: in other assays of this panel Not Active means under 50% inhibition at 10 µM
Mu-type opioid receptor = Mu-type opioid receptor (Homo sapiens, UniProt P35372); test: DRUGMATRIX: Opiate mu (OP3, MOP) radioligand binding (ligand: [3H] Diprenorphine); type: cell membranes, CHO-K1, Membrane; conditions: Not Active = under 50% inhibition at 10 µM
[3] = biological target: T2, Alpha-1D adrenergic receptor (Homo sapiens, UniProt P25100); type: cell membranes, HEK293, Membrane; conditions: for Ki: read-out: Ki; as to all read-outs here: in other assays of this panel Not Active means under 50% inhibition at 10 µM
T2 sequence (P25100 whole entry): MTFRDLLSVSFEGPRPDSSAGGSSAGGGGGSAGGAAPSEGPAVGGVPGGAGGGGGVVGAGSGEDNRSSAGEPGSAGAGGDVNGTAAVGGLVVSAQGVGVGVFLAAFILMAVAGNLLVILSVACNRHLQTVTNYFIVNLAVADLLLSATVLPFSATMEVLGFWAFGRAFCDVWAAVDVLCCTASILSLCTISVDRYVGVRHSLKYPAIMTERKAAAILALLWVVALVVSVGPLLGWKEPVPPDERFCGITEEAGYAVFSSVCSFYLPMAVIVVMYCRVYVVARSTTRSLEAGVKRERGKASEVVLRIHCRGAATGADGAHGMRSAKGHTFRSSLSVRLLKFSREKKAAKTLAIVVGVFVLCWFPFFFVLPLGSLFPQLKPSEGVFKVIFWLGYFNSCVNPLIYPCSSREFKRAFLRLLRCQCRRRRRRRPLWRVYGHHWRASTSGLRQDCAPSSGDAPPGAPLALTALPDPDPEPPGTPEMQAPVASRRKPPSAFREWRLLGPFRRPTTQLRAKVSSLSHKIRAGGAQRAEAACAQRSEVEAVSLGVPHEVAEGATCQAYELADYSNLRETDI

Chain of Cytochrome P450 2D6 (P10635 whole entry): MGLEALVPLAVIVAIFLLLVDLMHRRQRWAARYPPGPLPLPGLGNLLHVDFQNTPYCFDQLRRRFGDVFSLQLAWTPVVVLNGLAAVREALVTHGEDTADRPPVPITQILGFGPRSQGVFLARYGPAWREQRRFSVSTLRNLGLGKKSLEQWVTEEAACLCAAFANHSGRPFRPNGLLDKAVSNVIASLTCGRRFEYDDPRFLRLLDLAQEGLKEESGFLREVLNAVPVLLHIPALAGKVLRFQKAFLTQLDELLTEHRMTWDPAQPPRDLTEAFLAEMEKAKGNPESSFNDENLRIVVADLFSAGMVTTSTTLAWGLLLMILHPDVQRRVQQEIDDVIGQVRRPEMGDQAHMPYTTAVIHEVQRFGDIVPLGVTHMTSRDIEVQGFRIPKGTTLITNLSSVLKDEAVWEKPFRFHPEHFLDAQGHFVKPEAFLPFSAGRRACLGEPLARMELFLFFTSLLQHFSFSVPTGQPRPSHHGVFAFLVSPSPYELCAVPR
Chain of D(3) dopamine receptor (P35462 whole entry): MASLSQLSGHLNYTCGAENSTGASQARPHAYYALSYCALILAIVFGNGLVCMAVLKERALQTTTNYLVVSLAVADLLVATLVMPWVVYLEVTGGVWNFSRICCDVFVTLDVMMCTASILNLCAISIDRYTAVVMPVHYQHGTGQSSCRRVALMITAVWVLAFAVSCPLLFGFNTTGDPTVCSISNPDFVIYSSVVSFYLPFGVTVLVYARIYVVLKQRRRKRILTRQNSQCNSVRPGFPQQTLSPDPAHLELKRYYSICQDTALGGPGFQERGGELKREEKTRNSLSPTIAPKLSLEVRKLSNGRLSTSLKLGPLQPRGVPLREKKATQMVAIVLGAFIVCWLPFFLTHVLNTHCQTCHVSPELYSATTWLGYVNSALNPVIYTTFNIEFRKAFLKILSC
Chain of Mu-type opioid receptor (P35372 whole entry): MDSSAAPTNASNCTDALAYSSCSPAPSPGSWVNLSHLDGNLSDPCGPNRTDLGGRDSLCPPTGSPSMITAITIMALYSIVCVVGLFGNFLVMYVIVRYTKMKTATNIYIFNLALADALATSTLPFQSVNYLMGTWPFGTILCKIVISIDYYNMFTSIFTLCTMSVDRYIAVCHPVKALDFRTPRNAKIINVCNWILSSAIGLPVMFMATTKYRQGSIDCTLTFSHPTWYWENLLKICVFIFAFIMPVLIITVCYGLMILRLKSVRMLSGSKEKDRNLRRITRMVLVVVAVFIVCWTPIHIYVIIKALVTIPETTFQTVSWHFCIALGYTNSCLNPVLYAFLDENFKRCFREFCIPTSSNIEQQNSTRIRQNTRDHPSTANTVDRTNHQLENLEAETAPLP
Chain of Mitogen-activated protein kinase 3 (P27361 whole entry): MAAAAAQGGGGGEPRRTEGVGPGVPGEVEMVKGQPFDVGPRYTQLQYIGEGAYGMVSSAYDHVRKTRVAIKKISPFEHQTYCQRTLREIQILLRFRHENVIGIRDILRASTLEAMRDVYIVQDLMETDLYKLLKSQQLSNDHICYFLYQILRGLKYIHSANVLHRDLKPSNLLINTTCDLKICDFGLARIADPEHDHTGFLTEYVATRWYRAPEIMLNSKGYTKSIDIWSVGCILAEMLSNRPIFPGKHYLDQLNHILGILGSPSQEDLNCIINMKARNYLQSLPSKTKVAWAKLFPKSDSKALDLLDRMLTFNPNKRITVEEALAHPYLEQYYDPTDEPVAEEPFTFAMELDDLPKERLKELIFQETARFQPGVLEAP

SMILES	IC50 [1]	IC50 (D(3) dopamine receptor; cho)	IC50 [2]	IC50 (Cytochrome P450 2D6)	Ki (Cytochrome P450 2D6)	IC50 (Mu-type opioid receptor; cho-k1)	IC50 ([3]; read-out: IC50)	Ki [3]	IC50 ([3]; hek293)	IC50 (D(3) dopamine receptor; read-out: IC50)	Ki (D(3) dopamine receptor)	Ki (Mu-type opioid receptor)	IC50 (Mu-type opioid receptor; read-out: IC50)
CNC[C@H](O)c1ccc(O)c(O)c1 [EPINEPHRINE]	Not Active	Not Active	Not Active	Not Active	Not Active	Not Active	449 nM	221 nM	–	–	–	–	–
CC(C)Cc1ccc([C@H](C)C(=O)O)cc1 [DEXIBUPROFEN]	Not Active	Not Active	Not Active	Not Active	Not Active	Not Active	–	–	Not Active	–	–	–	–
CC(C)Cn1cnc2c(N)nc3ccccc3c21 [IMIQUIMOD]	Not Active	Not Active	Not Active	Not Active	Not Active	Not Active	2620 nM	1290 nM	–	–	–	–	–
CC(C)(C#N)c1cc(Cn2cncn2)cc(C(C)(C)C#N)c1 [ANASTROZOLE]	Not Active	Not Active	Not Active	Not Active	Not Active	Not Active	–	–	Not Active	–	–	–	–
COc1ccccc1OCCNCC(O)COc1cccc2[nH]c3ccccc3c12 (configuration not stated) [CARVEDILOL]	Not Active	–	Not Active	Not Active	Not Active	Not Active	1.8 nM	0.883 nM	–	577 nM	196 nM	–	–
c1ccc2sc(SSc3nc4ccccc4s3)nc2c1 [BENZOTHIAZYL DISULFIDE]	Not Active	–	Not Active	Not Active	Not Active	–	–	–	Not Active	851 nM	289 nM	1260 nM	3110 nM
O=C1c2ccccc2C(=O)C1c1ccccc1 [PHENINDIONE]	Not Active	Not Active	Not Active	Not Active	Not Active	Not Active	–	–	Not Active	–	–	–	–
Nc1ccc(C(=O)O)c(O)c1 [AMINOSALICYLIC ACID]	Not Active	Not Active	Not Active	Not Active	Not Active	Not Active	–	–	Not Active	–	–	–	–
OC[C@H]1O[C@@H]2O[C@H]3[C@H](O)[C@@H](O)[C@@H](O[C@H]4[C@H](O)[C@@H](O)[C@@H](O[C@H]5[C@H](O)[C@@H](O)[C@@H](O[C@H]6[C@H](O)[C@@H](O)[C@@H](O[C@H]7[C@H](O)[C@@H](O)[C@@H](O[C@H]1[C@H](O)[C@H]2O)O[C@@H]7CO)O[C@@H]6CO)O[C@@H]5CO)O[C@@H]4CO)O[C@@H]3CO [ALFADEX]	Not Active	Not Active	Not Active	Not Active	Not Active	Not Active	–	–	Not Active	–	–	–	–
COC(=O)C[C@](O)(CCC(C)(C)O)C(=O)O[C@@H]1C(OC)=C[C@]23CCCN2CCc2cc4c(cc2[C@H]13)OCO4 [HARRINGTONINE]	Not Active	Not Active	Not Active	Not Active	Not Active	Not Active	–	–	Not Active	–	–	–	–
O=C1CN(/N=C/c2ccc([N+](=O)[O-])o2)C(=O)N1 [NITROFURANTOIN]	Not Active	Not Active	Not Active	Not Active	Not Active	Not Active	–	–	Not Active	–	–	–	–
C[N+](C)(C)CCOC(N)=O.[Cl-] [CARBACHOL]	Not Active	Not Active	Not Active	Not Active	Not Active	Not Active	–	–	Not Active	–	–	–	–
O=C(NCCN1CCOCC1)c1ccc(Cl)cc1 [MOCLOBEMIDE]	Not Active	Not Active	Not Active	Not Active	Not Active	Not Active	–	–	Not Active	–	–	–	–
